# Results reported in patent US20030232102A1, “Total glycosides of paeony, method to prepare the same and uses thereof” (priority 2001, published 2003).
# Tested on: patients with rheumatoid arthritis
# Experiment: Phase II clinical study in rheumatoid arthritis: effectiveness (symptoms, physical examination, comprehensive evaluation)
# Format: in vivo, human
# Parameters: ESR Reduced to norm., % of cases / CRP Reduced to Norm., % of cases / RF Reduced to norm., % of cases: concentration or dose not given beside the values
# Procedure: It was a multiple-centered, randomized, parallel, positive controlled Phrase II clinical study.
# All clinical studies except the above mentioned 120 cases were conducted in a single-blind condition.
# 1) Age 18˜65, male or female who agreed to the investigational treatment for 12 weeks to 6 months. History of rheumatoid arthritis was within 3 years.
# 2) Documented Rheumatoid Arthritis based on a diagnostic criteria of 1987 Revised ARA Criteria for the Classification of Rheumatoid Arthritis
# 3) Diagnosis of a typical active stage of RA: A patient is said to be on an active stage of RA if he or she has satisfied at least 4 of the following 5 items.
# 2) Patient who quitted the treatment for the ineffectiveness 7 days after the start of administration was included in the efficacy analysis. Patient who quitted the treatment for the side effects was not included in the efficacy analysis but the safety analyses.
# 1) The placebo run-in period: Seven days before administration, the selected patients stopped using NSAIDs and took a placebo instead.
# 4) For the double-blinded study, patients in both groups would be given capsules and tablets in same shapes, odors and amount. Placebo of capsule or tablet were included. Neither doctors nor patients can tell the group of treatment from the other.
# 5) No analgesics, anti-inflammation drugs, immune regulatory agents or muscle relaxants were allowed during the period of study. Acetaminophen could be used when necessary. If a physical therapy was started before enrollment, it was allowed to be continued, yet, it should be taken all the way during the period of clinical study.
# 1) Pain at rest: patients were asked to scale the degree of pain with a ruler [drawing 1]
# 2) Morning stiffness: Patients were requested to make notes on duration of their morning joint stiffness, a time span from its appearance to recovery in minutes every morning. The doctors should evaluate their record sheets by questioning them. For example “Do you fell stiff in any of your joints? (today, these 2 days)” When get a “yes” in answer, then “when did you get up today?” and “when does the stiffness be gone?”
# 3) Swelling of joints: Take count of the index of joint swelling by summing up the degree number of each joint.
# 0=normal; 1=swelling soft tissues (synovium) without hydrarthrus; 2=swelling soft tissues (synovium) with hydrarthrus.
# 4) Tenderness of joints: Take count of the index of joint tenderness by summing up the degree number of each joint:
# 5) Grip strength: Fold the arm belt of a sphygmomanometer twice and seal it in a small cloth bag suitable for a hand to hold. Aerates the belt in pressure of 20 mm Hg. Patients were asked to grip the bag with their not braced left and right hand, the grip strength is the average pressures in mm Hg for three times.
# 6) Time consumed for a 15 meters' walk (Seconds): Time started from a calm standing to the final of 15 meters. The average of three times.
# 7) General joint function (criteria of ARA):
# 8) Self-scoring and physician's grading on disease conditions: Both patients and doctors were required to submit their score sheet every time on follow-up survey. The scoring was made upon following criteria:
# 9) Patient's general condition: condition on the physical strength, sleep and appetite.
# No effect: less than 30% improvement in symptoms and physical signs.
# Improved: About 50% improvement in symptoms and physical signs (including general conditions in physical strength, sleep and appetite).
structure (smiles),measurement,setting,value
"CN(Cc1cnc2nc(N)nc(N)c2n1)c1ccc(C(=O)N[C@@H](CCC(=O)O)C(=O)O)cc1 [MTX, Methotrexate]","MR Disappeared, cases","double blinded, 12 weeks",15
same,"NSJ 50% reduced, % of cases","double blinded, 12 weeks",56.7%
same,"NSJ 50% reduced, cases","double blinded, 12 weeks",34
same,"NSJ Disappeared, % of cases","double blinded, 12 weeks",26.7%
same,"NSJ Disappeared, cases","double blinded, 12 weeks",16
same,"RF 2 dilutions lower, % of cases","double blinded, 12 weeks",36.7%
same,"RF 2 dilutions lower, cases","double blinded, 12 weeks",22
same,"RF Reduced to norm., cases","double blinded, 12 weeks",0
same,"AGS 50% increased, % of cases","overall group, 4 weeks",7.5%
same,"AGS 50% increased, cases","overall group, 4 weeks",19
same,"CRP 50% reduced, % of cases","overall group, 4 weeks",13.4%
same,"CRP 50% reduced, cases","overall group, 4 weeks",19
same,"CRP Reduced to Norm., % of cases","overall group, 4 weeks",4.9%
same,"CRP Reduced to Norm., cases","overall group, 4 weeks",7
same,"ESR 50% reduced, % of cases","overall group, 4 weeks",41.6%
same,"ESR 50% reduced, cases","overall group, 4 weeks",59
same,"ESR Reduced to norm., % of cases","overall group, 4 weeks",15.5%
same,"ESR Reduced to norm., cases","overall group, 4 weeks",22
same,"ITJ 50% reduced, % of cases","overall group, 4 weeks",19.0%
same,"ITJ 50% reduced, cases","overall group, 4 weeks",27
same,"ITJ Disappeared, % of cases","overall group, 4 weeks",2.8%
same,"ITJ Disappeared, cases","overall group, 4 weeks",4
same,"MR 50% reduced, % of cases","overall group, 4 weeks",45.8%
same,"MR 50% reduced, cases","overall group, 4 weeks",65
same,"MR Disappeared, % of cases","overall group, 4 weeks",9.8%
same,"MR Disappeared, cases","overall group, 4 weeks",14
same,"NSJ 50% reduced, % of cases","overall group, 4 weeks",48.6%
same,"NSJ 50% reduced, cases","overall group, 4 weeks",69
same,"NSJ Disappeared, % of cases","overall group, 4 weeks",10.6%
same,"NSJ Disappeared, cases","overall group, 4 weeks",15
same,"RF 2 dilutions lower, % of cases","overall group, 4 weeks",49.3%
same,"RF 2 dilutions lower, cases","overall group, 4 weeks",70
same,"RF Reduced to norm., % of cases","overall group, 4 weeks",4.9%
same,"RF Reduced to norm., cases","overall group, 4 weeks",7
same,"AGS 50% increased, % of cases","overall group, 8 weeks",16.7%
same,"AGS 50% increased, cases","overall group, 8 weeks",23
same,"CRP 50% reduced, % of cases","overall group, 8 weeks",17.6%
same,"CRP 50% reduced, cases","overall group, 8 weeks",25
same,"CRP Reduced to Norm., % of cases","overall group, 8 weeks",12.7%
same,"CRP Reduced to Norm., cases","overall group, 8 weeks",18
same,"ESR 50% reduced, cases","overall group, 8 weeks",80
same,"ESR Reduced to norm., % of cases","overall group, 8 weeks",18.3%
same,"ESR Reduced to norm., cases","overall group, 8 weeks",26
same,"ITJ 50% reduced, % of cases","overall group, 8 weeks",34.5%
same,"ITJ 50% reduced, cases","overall group, 8 weeks",49
same,"ITJ Disappeared, % of cases","overall group, 8 weeks",3.5%
same,"ITJ Disappeared, cases","overall group, 8 weeks",5
same,"MR 50% reduced, % of cases","overall group, 8 weeks",52.1%
same,"MR 50% reduced, cases","overall group, 8 weeks",74
same,"MR Disappeared, % of cases","overall group, 8 weeks",19.7%
same,"MR Disappeared, cases","overall group, 8 weeks",28
same,"NSJ 50% reduced, % of cases","overall group, 8 weeks",51.4%
same,"NSJ 50% reduced, cases","overall group, 8 weeks",73
same,"NSJ Disappeared, % of cases","overall group, 8 weeks",16.9%
same,"NSJ Disappeared, cases","overall group, 8 weeks",24
same,"RF 2 dilutions lower, % of cases","overall group, 8 weeks",59.9%
same,"RF 2 dilutions lower, cases","overall group, 8 weeks",85
same,"RF Reduced to norm., % of cases","overall group, 8 weeks",9.2%
same,"RF Reduced to norm., cases","overall group, 8 weeks",13
same,"AGS 50% increased, % of cases","overall group, 12 weeks",29.5%
same,"AGS 50% increased, cases","overall group, 12 weeks",42
same,"CRP 50% reduced, % of cases","overall group, 12 weeks",23.2%
same,"CRP 50% reduced, cases","overall group, 12 weeks",33
same,"CRP Reduced to Norm., % of cases","overall group, 12 weeks",17.6%
same,"CRP Reduced to Norm., cases","overall group, 12 weeks",25
same,"ESR 50% reduced, cases","overall group, 12 weeks",76
same,"ESR Reduced to norm., % of cases","overall group, 12 weeks",21.8%
same,"ESR Reduced to norm., cases","overall group, 12 weeks",31
same,"ITJ 50% reduced, % of cases","overall group, 12 weeks",50.7%
same,"ITJ 50% reduced, cases","overall group, 12 weeks",72
same,"ITJ Disappeared, % of cases","overall group, 12 weeks",6.3%
same,"ITJ Disappeared, cases","overall group, 12 weeks",9
same,"MR 50% reduced, % of cases","overall group, 12 weeks",67.6%
same,"MR 50% reduced, cases","overall group, 12 weeks",96
same,"MR Disappeared, % of cases","overall group, 12 weeks",11.3%
same,"MR Disappeared, cases","overall group, 12 weeks",34
same,"NSJ 50% reduced, % of cases","overall group, 12 weeks",61.3%
same,"NSJ 50% reduced, cases","overall group, 12 weeks",87
same,"NSJ Disappeared, % of cases","overall group, 12 weeks",19.0%
same,"NSJ Disappeared, cases","overall group, 12 weeks",27
same,"RF 2 dilutions lower, % of cases","overall group, 12 weeks",59.9%
same,"RF 2 dilutions lower, cases","overall group, 12 weeks",85
same,"RF Reduced to norm., % of cases","overall group, 12 weeks",11.3%
same,"RF Reduced to norm., cases","overall group, 12 weeks",16
same,"AGS 50% increased, % of cases","overall group, 24 weeks",16.7%
same,"AGS 50% increased, cases","overall group, 24 weeks",10
same,"CRP 50% reduced, % of cases","overall group, 24 weeks",18.3%
same,"CRP 50% reduced, cases","overall group, 24 weeks",11
same,"CRP Reduced to Norm., % of cases","overall group, 24 weeks",40.0%
same,"CRP Reduced to Norm., cases","overall group, 24 weeks",24
same,"ESR 50% reduced, % of cases","overall group, 24 weeks",23.3%
same,"ESR 50% reduced, cases","overall group, 24 weeks",14
same,"ESR Reduced to norm., % of cases","overall group, 24 weeks",43.3%
same,"ESR Reduced to norm., cases","overall group, 24 weeks",26
same,"ITJ 50% reduced, % of cases","overall group, 24 weeks",58.3%
same,"ITJ 50% reduced, cases","overall group, 24 weeks",35
same,"ITJ Disappeared, % of cases","overall group, 24 weeks",10.0%
same,"ITJ Disappeared, cases","overall group, 24 weeks",6
same,"MR 50% reduced, % of cases","overall group, 24 weeks",50.0%
same,"MR 50% reduced, cases","overall group, 24 weeks",30
same,"MR Disappeared, % of cases","overall group, 24 weeks",31.7%
same,"MR Disappeared, cases","overall group, 24 weeks",19
same,"NSJ 50% reduced, % of cases","overall group, 24 weeks",46.7%
same,"NSJ 50% reduced, cases","overall group, 24 weeks",28
same,"NSJ Disappeared, % of cases","overall group, 24 weeks",26.7%
same,"NSJ Disappeared, cases","overall group, 24 weeks",16
same,"RF 2 dilutions lower, % of cases","overall group, 24 weeks",38.3%
same,"RF 2 dilutions lower, cases","overall group, 24 weeks",23
same,"RF Reduced to norm., % of cases","overall group, 24 weeks",10.0%
same,"RF Reduced to norm., cases","overall group, 24 weeks",6
same,Changes in RA perimeters: GS-L,"overall groups, 4 weeks, mean",12.56
same,Changes in RA perimeters: GS-R,"overall groups, 4 weeks, mean",11.60
same,Changes in RA perimeters: ISJ,"overall groups, 4 weeks, mean",3.73
same,Changes in RA perimeters: ITJ,"overall groups, 4 weeks, mean",6.04
same,Changes in RA perimeters: MR,"overall groups, 4 weeks, mean",35.76
same,Changes in RA perimeters: NSJ,"overall groups, 4 weeks, mean",2.10
same,Changes in RA perimeters: NTJ,"overall groups, 4 weeks, mean",2.61
same,Changes in RA perimeters: PR,"overall groups, 4 weeks, mean",1.05
same,Changes in RA perimeters: GS-L,"overall groups, 8 weeks, mean",16.66
same,Changes in RA perimeters: GS-R,"overall groups, 8 weeks, mean",19.36
same,Changes in RA perimeters: ITJ,"overall groups, 8 weeks, mean",12.66
same,Changes in RA perimeters: MR,"overall groups, 8 weeks, mean",54.20
same,Changes in RA perimeters: NSJ,"overall groups, 8 weeks, mean",4.43
same,Changes in RA perimeters: NTJ,"overall groups, 8 weeks, mean",5.38
same,Changes in RA perimeters: PR,"overall groups, 8 weeks, mean",1.94
same,Changes in RA perimeters: TSJ,"overall groups, 8 weeks, mean",6.59
same,Changes in RA perimeters: GS-L,"overall groups, 12 weeks, mean",23.06
same,Changes in RA perimeters: GS-R,"overall groups, 12 weeks, mean",28.10
same,Changes in RA perimeters: ISJ,"overall groups, 12 weeks, mean",10.25
same,Changes in RA perimeters: ITJ,"overall groups, 12 weeks, mean",18.77
same,Changes in RA perimeters: MR,"overall groups, 12 weeks, mean",78.52
same,Changes in RA perimeters: NSJ,"overall groups, 12 weeks, mean",6.77
same,Changes in RA perimeters: NTJ,"overall groups, 12 weeks, mean",8.78
same,Changes in RA perimeters: GS-L,"overall groups, 24 weeks, mean",31.83
same,Changes in RA perimeters: GS-R,"overall groups, 24 weeks, mean",30.90
same,Changes in RA perimeters: ISJ,"overall groups, 24 weeks, mean",6.88
same,Changes in RA perimeters: ITJ,"overall groups, 24 weeks, mean",13.94
same,Changes in RA perimeters: MR,"overall groups, 24 weeks, mean",60.70
same,Changes in RA perimeters: NSJ,"overall groups, 24 weeks, mean",5.39
same,Changes in RA perimeters: NTJ,"overall groups, 24 weeks, mean",9.05
same,Changes in RA perimeters: PR,"overall groups, 24 weeks, mean",2.62
